{
  "source": "patent US20240365736A1",
  "about": "“COMPOSITIONS AND METHODS FOR TARGETED DEGRADATION OF PROTEINS IN A PLANT CELL” (Oerth Bio LLC, priority 2021, published 2024)",
  "data": [
    {"system": "Matricaria recutita, Diplotaxis tenuifolia, Agrostis spp., Poa annua, or Arabidopsis thaliana", "experiment": "Plant phenotyping assay (herbicidal phenotypes, 96-well plates); further: key: '+++' is highly active; '++' is moderately active; '+' is weakly active; '−' is inactive", "assay_type": "in vivo", "settings": "visual score of herbicidal phenotypes after seven days; 238, 475, 950, and 1900 g ai/ha (50-400 uM)", "procedure": "Seeds of Matricaria recutita, Diplotaxis tenuifolia, Agrostis spp., Poa annua, or Arabidopsis thaliana were sown into 96-well plates containing 200 μl of growth media [0.5× Murashige and Skoog (MS) basal media (Sigma-Aldrich), 2.5 mM 2-(N-morpholino) ethanesulfonic acid (MES—Sigma-Aldrich), 0.7 g/L Phytagar (Invitrogen); pH 5.7]. Three to five seeds were distributed per well. Plates were placed under fifteen hours of light at 23° C., 65% humidity in a controlled environment growth chamber. After approximately three days, test compounds and controls were mixed with acetone and emulsified with an equal volume of 3% methyl ester of rapeseed oil (Mero), and applied to plants at concentrations of 238, 475, 950, and 1900 g ai/ha (50-400 uM).", "values": [
      {"smiles": "O=C1CCC(N2C(=O)c3cccc(OCCOCCOCCOc4cccc(C(=O)C5C(=O)CCCC5=O)c4Cl)c3C2=O)C(=O)N1", "note": "(centres unmarked) [Compound 1, 4-[2-[2-[2-[2-chloro-3-(2,6-dioxocyclohexanecarbonyl)phenoxy]ethoxy]ethoxy]-ethoxy]-2-(2,6-dioxo-3-piperidyl)isoindoline-1,3-dione]", "Plant Activity": "++"},
      {"smiles": "O=C(COc1cccc2c1C(=O)N(C1CCC(=O)NC1=O)C2=O)NCCOCCOc1cccc(C(=O)C2C(=O)CCCC2=O)c1Cl", "note": "(centres unmarked) [Compound 1-A, N-(2-(2-(2-Chloro-3-(2,6-dioxocyclohexane-1-carbonyl)phenoxy)ethoxy)ethyl)-2-((2-(2,6-dioxopiperidin-3-yl)-1,3-dioxoisoindolin-4-yl)oxy)acetamide]", "Plant Activity": "+"},
      {"smiles": "O=C1CCC(N2C(=O)c3ccc(N4CCN(CCOCCOCCOc5cccc(C(=O)C6C(=O)CCCC6=O)c5Cl)CC4)cc3C2=O)C(=O)N1", "note": "(centres unmarked) [Compound 2, 5-[4-[2-[2-[2-[2-chloro-3-(2,6-dioxocyclohexane-carbonyl)phenoxy]ethoxy]-ethoxy]ethyl]piperazin-1-yl]-2-(2,6-dioxo-3-piperidyl)isoindoline-1,3-dione]", "Plant Activity": "+"},
      {"smiles": "O=C1CCC(N2C(=O)c3ccc(N4CCN(CCOCCOCCOCCN5CCC(Oc6cccc(C(=O)C7C(=O)CCCC7=O)c6Cl)CC5)CC4)cc3C2=O)C(=O)N1", "note": "(centres unmarked) [Compound 2-A, 5-[4-[2-[2-[2-[2-[4-[2-Chloro-3-(2,6-dioxocyclohexanecarbonyl)phenoxy]-1-piperidyl]ethoxy]ethoxy]ethoxy]ethyl]piperazin-1-yl]-2-(2,6-dioxo-3-piperidyl)isoindoline-1,3-dione]", "Plant Activity": "+"},
      {"smiles": "O=C1CCC(N2C(=O)c3ccc(N4CCN(CCCC5CCN(CCOCCOc6cccc(C(=O)C7C(=O)CCCC7=O)c6Cl)CC5)CC4)cc3C2=O)C(=O)N1", "note": "(centres unmarked) [Compound 2-B, 5-(4-(3-(1-(2-(2-(2-Chloro-3-(2,6-dioxocyclohexane-1-carbonyl)phenoxy)ethoxy)ethyl)piperidin-4-yl)propyl)piperazin-1-yl)-2-(2,6-dioxopiperidin-3-yl)isoindoline-1,3-dione]", "Plant Activity": "+"},
      {"smiles": "CS(=O)(=O)c1ccc(C(=O)C2C(=O)CCCC2=O)c(Cl)c1OCCOCCOCCOc1ccc2c(c1)C(=O)N(C1CCC(=O)NC1=O)C2=O", "note": "(centres unmarked) [Compound 3, 5-[2-[2-[2-[2-chloro-3-(2,6-dioxocyclohexanecarbonyl)-6-methylsulfonyl-phenoxy]ethoxy]ethoxy]ethoxy]-2-(2,6-dioxo-3-piperidyl)isoindoline-1,3-dione]", "Plant Activity": "++"},
      {"smiles": "COc1cnc(OC)n2nc(NS(=O)(=O)c3c(OCCOc4ccc5c(c4)C(=O)N(C4CCC(=O)NC4=O)C5=O)cccc3C(F)(F)F)nc12", "note": "(centres unmarked) [Compound 4, N-(5,8-dimethoxy-[1,2,4]triazolo[1,5-c]pyrimidin-2-yl)-2-[2-[2-(2,6-dioxo-3-piperidyl)-1,3-dioxo-isoindolin-5-yl]oxyethoxy]-6-(trifluoromethyl)benzenesulfonamide]", "Plant Activity": "+"},
      {"smiles": "COc1cnc(OC)n2nc(NS(=O)(=O)c3c(OCCOCCOCCOCCOCCOc4ccc5c(c4)C(=O)N(C4CCC(=O)NC4=O)C5=O)cccc3C(F)(F)F)nc12", "note": "(centres unmarked) [Compound 4-A, N-(5,8-Dimethoxy-[1,2,4]triazolo[1,5-c]pyrimidin-2-yl)-2-((14-((2-(2,6-dioxopiperidin-3-yl)-1,3-dioxoisoindolin-5-yl)oxy)-3,6,9,12-tetraoxatetradecyl)oxy)-6-(trifluoromethyl)benzenesulfonamide]", "Plant Activity": "+++"},
      {"smiles": "COc1cnc(OC)n2nc(NS(=O)(=O)c3c(OCCOCCOCCOc4ccc5c(c4)C(=O)N(C4CCC(=O)NC4=O)C5=O)cccc3C(F)(F)F)nc12", "note": "(centres unmarked) [Compound 4-C, N-(5,8-Dimethoxy-[1,2,4]triazolo[1,5-c]pyrimidin-2-yl)-2-(2-(2-(2-((2-(2,6-dioxopiperidin-3-yl)-1,3-dioxoisoindolin-5-yl)oxy)ethoxy)ethoxy)ethoxy)-6-(trifluoromethyl)benzenesulfonamide]", "Plant Activity": "+++"},
      {"smiles": "COc1cnc(OC)n2nc(NS(=O)(=O)c3c(OCCOCCOCCOCCOc4ccc5c(c4)C(=O)N(C4CCC(=O)NC4=O)C5=O)cccc3C(F)(F)F)nc12", "note": "(centres unmarked) [Compound 4-D, N-(5,8-Dimethoxy-[1,2,4]triazolo[1,5-c]pyrimidin-2-yl)-2-(2-(2-(2-(2-((2-(2,6-dioxopiperidin-3-yl)-1,3-dioxoisoindolin-5-yl)oxy)ethoxy)ethoxy)ethoxy)ethoxy)-6-(trifluoromethyl)benzenesulfonamide]", "Plant Activity": "+++"},
      {"smiles": "COc1cnc(OC)n2nc(NS(=O)(=O)c3c(OCCOCCOCCOCCOCCOCCOc4cccc5c4C(=O)N(C4CCC(=O)NC4=O)C5=O)cccc3C(F)(F)F)nc12", "note": "(centres unmarked) [Compound 4-E, N-(5,8-Dimethoxy-[1,2,4]triazolo[1,5-c]pyrimidin-2-yl)-2-((17-((2-(2,6-dioxopiperidin-3-yl)-1,3-dioxoisoindolin-4-yl)oxy)-3,6,9,12,15-pentaoxaheptadecyl)oxy)-6-(trifluoromethyl)benzenesulfonamide]", "Plant Activity": "++"},
      {"smiles": "COc1cnc(OC)n2nc(NS(=O)(=O)c3c(OCCOCCOCCOCCOCCNc4cccc5c4C(=O)N(C4CCC(=O)NC4=O)C5=O)cccc3C(F)(F)F)nc12", "note": "(centres unmarked) [Compound 4-F, N-(5,8-Dimethoxy-[1,2,4]triazolo[1,5-c]pyrimidin-2-yl)-2-((14-((2-(2,6-dioxopiperidin-3-yl)-1,3-dioxoisoindolin-4-yl)amino)-3,6,9,12-tetraoxatetradecyl)oxy)-6-(trifluoromethyl)benzenesulfonamide]", "Plant Activity": "+++"},
      {"smiles": "COc1cnc(OC)n2nc(NS(=O)(=O)c3c(OCCOCCOCCOCCNC(=O)COc4cccc5c4C(=O)N(C4CCC(=O)NC4=O)C5=O)cccc3C(F)(F)F)nc12", "note": "(centres unmarked) [Compound 4-G, N-(2-(2-(2-(2-(2-(N-(5,8-Dimethoxy-[1,2,4]triazolo[1,5-c]pyrimidin-2-yl)sulfamoyl)-3-(trifluoromethyl)phenoxy)ethoxy)ethoxy)ethoxy)ethyl)-2-((2-(2,6-dioxopiperidin-3-yl)-1,3-dioxoisoindolin-4-yl)oxy)acetamide]", "Plant Activity": "++"},
      {"smiles": "COc1cnc(OC)n2nc(NS(=O)(=O)c3c(OCCOCCOCCOCCOCCNC(=O)COc4cccc5c4C(=O)N(C4CCC(=O)NC4=O)C5=O)cccc3C(F)(F)F)nc12", "note": "(centres unmarked) [Compound 4-H, N-(14-(2-(N-(5,8-Dimethoxy-[1,2,4]triazolo[1,5-c]pyrimidin-2-yl)sulfamoyl)-3-(trifluoromethyl)phenoxy)-3,6,9,12-tetraoxatetradecyl)-2-((2-(2,6-dioxopiperidin-3-yl)-1,3-dioxoisoindolin-4-yl)oxy)acetamide]", "Plant Activity": "+++"},
      {"smiles": "COc1cnc(OC)n2nc(NS(=O)(=O)c3c(OC4CCN(CCOCCOCCN5CCN(c6ccc7c(c6)C(=O)N(C6CCC(=O)NC6=O)C7=O)CC5)CC4)cccc3C(F)(F)F)nc12", "note": "(centres unmarked) [Compound 4-I, N-(5,8-Dimethoxy-[1,2,4]triazolo[1,5-c]pyrimidin-2-yl)-2-((1-(2-(2-(2-(4-(2-(2,6-dioxopiperidin-3-yl)-1,3-dioxoisoindolin-5-yl)piperazin-1-yl)ethoxy)ethoxy)ethyl)piperidin-4-yl)oxy)-6-(trifluoromethyl)benzenesulfonamide]", "Plant Activity": "+"},
      {"smiles": "COc1cnc(OC)n2nc(NS(=O)(=O)c3c(OCCOCCOCCN4CCC(CCCN5CCN(c6ccc7c(c6)C(=O)N(C6CCC(=O)NC6=O)C7=O)CC5)CC4)cccc3C(F)(F)F)nc12", "note": "(centres unmarked) [Compound 4-J, N-(5,8-Dimethoxy-[1,2,4]triazolo[1,5-c]pyrimidin-2-yl)-2-(2-(2-(2-(4-(3-(4-(2-(2,6-dioxopiperidin-3-yl)-1,3-dioxoisoindolin-5-yl)piperazin-1-yl)propyl)piperidin-1-yl)ethoxy)ethoxy)ethoxy)-6-(trifluoromethyl)benzenesulfonamide]", "Plant Activity": "−"},
      {"smiles": "COc1cnc(OC)n2nc(NS(=O)(=O)c3c(OCCOCCN4CCC(CCCN5CCN(c6ccc7c(c6)C(=O)N(C6CCC(=O)NC6=O)C7=O)CC5)CC4)cccc3C(F)(F)F)nc12", "note": "(centres unmarked) [Compound 4-K, N-(5,8-Dimethoxy-[1,2,4]triazolo[1,5-c]pyrimidin-2-yl)-2-(2-(2-(4-(3-(4-(2-(2,6-dioxopiperidin-3-yl)-1,3-dioxoisoindolin-5-yl)piperazin-1-yl)propyl)piperidin-1-yl)ethoxy)ethoxy)-6-(trifluoromethyl)benzenesulfonamide]", "Plant Activity": "+"},
      {"smiles": "COc1cnc(OC)n2nc(NS(=O)(=O)c3c(OCCN4CCC(CCCN5CCN(c6ccc7c(c6)C(=O)N(C6CCC(=O)NC6=O)C7=O)CC5)CC4)cccc3C(F)(F)F)nc12", "note": "(centres unmarked) [Compound 4-L, N-(5,8-Dimethoxy-[1,2,4]triazolo[1,5-c]pyrimidin-2-yl)-2-(2-(4-(3-(4-(2-(2,6-dioxopiperidin-3-yl)-1,3-dioxoisoindolin-5-yl)piperazin-1-yl)propyl)piperidin-1-yl)ethoxy)-6-(trifluoromethyl)benzenesulfonamide]", "Plant Activity": "−"},
      {"smiles": "COc1cnc(OC)n2nc(NS(=O)(=O)c3c(OCCCC4CCN(CCOCCOc5ccc6c(c5)C(=O)N(C5CCC(=O)NC5=O)C6=O)CC4)cccc3C(F)(F)F)nc12", "note": "(centres unmarked) [Compound 4-M, N-(5,8-Dimethoxy-[1,2,4]triazolo[1,5-c]pyrimidin-2-yl)-2-(3-(1-(2-(2-((2-(2,6-dioxopiperidin-3-yl)-1,3-dioxoisoindolin-5-yl)oxy)ethoxy)ethyl)piperidin-4-yl)propoxy)-6-(trifluoromethyl)benzenesulfonamide]", "Plant Activity": "+"},
      {"smiles": "COc1cnc(OC)n2nc(NS(=O)(=O)c3c(OCCCC4CCN(CCOCCOCCOc5ccc6c(c5)C(=O)N(C5CCC(=O)NC5=O)C6=O)CC4)cccc3C(F)(F)F)nc12", "note": "(centres unmarked) [Compound 4-N, N-(5,8-Dimethoxy-[1,2,4]triazolo[1,5-c]pyrimidin-2-yl)-2-(3-(1-(2-(2-(2-((2-(2,6-dioxopiperidin-3-yl)-1,3-dioxoisoindolin-5-yl)oxy)ethoxy)ethoxy)ethyl)piperidin-4-yl)propoxy)-6-(trifluoromethyl)benzenesulfonamide]", "Plant Activity": "−"}
    ]}
  ]
}
